Assay results: US7351708B2, “Pyrrolo [2,3-b] pyridine derivatives” (Hoffmann-La Roche Inc., priority 2005, dated 2008)

These compounds were tested against T1, histamine 3 receptor (H3R) (Homo sapiens, UniProt Q9Y5N1) (assay: Binding assay with 3H-(R)α-Methylhistamine (competition binding, membranes of the human HR3-CHO cell line)). Settings: competition against 3H(R)α-Methylhistamine (1 nM), Ki calculated from IC50 by Cheng-Prusoff.
T1 construct: expressed in transfected cells; host or cells: CHO cells (HR3-CHO cell line), membranes
Experimental: Binding Assay with ^3H—(R)α-Methylhistamine
Saturation binding experiments were performed using HR3-CHO membranes prepared as described in Takahashi, K, Tokita, S., Kotani, H. (2003) J. Pharmacol. Exp. Therapeutics 307, 213-218.
An appropriate amount of membrane (60 to 80 μg protein/well) was incubated with increasing concentrations of ^3H(R)α-Methylhistamine di-hydrochloride (0.10 to 10 nM). Non specific binding was determined using a 200 fold excess of cold (R)α-Methylhistamine dihydrobromide (500 nM final concentration). The incubation was carried out at room temperature (in deep-well plates shaking for three hours). The final volume in each well was 250 μl. The incubation was followed by rapid filtration on GF/B filters (pre-soaked with 100 μl of 0.5% PEI in Tris 50 mM shaking at 200 rpm for two hours). The filtration was made using a cell-harvester and the filter plates were then washed five times with ice cold washing buffer containing 0.5 M NaCl. After harvesting, the plates were dried at 55° C. for 60 min, then we added scintillation fluid (Microscint 40, 40 microl in each well) and the amount of radioactivity on the filter was determined in Packard top-counter after shaking the plates for two hours at 200 rpm at room temperature.
Binding Buffer: 50 mM Tris-HCl pH 7.4 and 5 mM MgCl2x 6H2O pH 7.4. Washing Buffer: 50 mM Tris-HCl pH 7.4 and 5 mM MgCl2x6H2O and 0.5 M NaCl pH 7.4.
Indirect measurement of affinity of H3R inverse agonists: twelve increasing concentrations (ranging from 10 μM to 0.3 nM) of the selected compounds were always tested in competition binding experiments using membrane of the human HR3-CHO cell line. An appropriate amount of protein, e.g. approximately 500 cpm binding of RAMH at Kd, were incubated for 1 hour at room temperature in 250 μl final volume in 96-well plates in presence of ^3H(R)α-Methylhistamine (1 nM final concentration=Kd). […]
All compounds were tested at a single concentration in duplicates. […] Ki's were calculated from IC50 based on Cheng-Prusoff equation (Cheng, Y, Prusoff, WH (1973) Biochem Pharmacol 22, 3099-3108).

T1 sequence (Q9Y5N1 whole entry): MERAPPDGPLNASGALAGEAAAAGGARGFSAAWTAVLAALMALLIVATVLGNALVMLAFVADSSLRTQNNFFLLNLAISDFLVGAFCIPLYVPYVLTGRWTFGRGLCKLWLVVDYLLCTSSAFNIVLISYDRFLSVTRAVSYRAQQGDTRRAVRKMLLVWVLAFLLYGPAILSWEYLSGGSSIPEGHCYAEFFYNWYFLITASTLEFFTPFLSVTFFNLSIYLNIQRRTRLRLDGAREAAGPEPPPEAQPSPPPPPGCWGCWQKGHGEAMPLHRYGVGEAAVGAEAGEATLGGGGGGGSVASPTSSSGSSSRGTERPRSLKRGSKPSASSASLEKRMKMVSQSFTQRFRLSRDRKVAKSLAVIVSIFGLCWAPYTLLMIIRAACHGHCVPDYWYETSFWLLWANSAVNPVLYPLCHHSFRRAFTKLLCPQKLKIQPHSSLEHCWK

In order of rising Ki:
1. O=C(NC1CCCCC1)c1cc2ccc(N3CCN(C4CCCC4)CC3)nc2[nH]1 [Example 4, 6-(4-cyclopentyl-piperazin-1-yl)-1H-pyrrolo[2,3-b]pyridine-2-carboxylic acid cyclohexylamide]  0.0227 µM
2. O=C(c1cc2ccc(N3CCN(C4CCCC4)CC3)nc2[nH]1)N1CCCCC1 [Example 1, [6-(4-Cyclopentyl-piperazin-1-yl)-1H-pyrrolo[2,3-b]pyridin-2-yl]-piperidin-1-yl-methanone]  0.0484 µM
3. O=C(c1cc2ccc(N3CCN(C4CCCC4)CC3)nc2[nH]1)N1CCC(O)C1 (stereo not drawn) [Example 8, [6-(4-cyclopentyl-piperazin-1-yl)-1H-pyrrolo[2,3-b]pyridin-2-yl]-(3-hydroxy-pyrrolidin-1-yl)-methanone]  0.0831 µM
